Test results: patent US12220419B2, “BCL-2 inhibitors” (Newave Pharmaceutical Inc., priority 2018, dated 2025)
Where a name gives a salt, the structure may show the parent alone. Read-outs that look alike come from different tables or passages of the source.

Assays:
[1] = system: BCL-2-dependent acute lymphoblastic leukemia (ALL) cell line RS4;11; assay: In vitro anti-proliferation assay (ATPlite luminescence) in RS4;11; format: cell-based; settings: RS4;11 cells, about 72 hours, medium with 5% FBS or 10% normal human serum
Description: Cell antiproliferation was assayed by PerkinElmer ATPlite™ Luminescence Assay System. Briefly, the various test cancer cell lines were plated at a density of about 1×10^4 cells per well in Costar 96-well plates, and were incubated with different concentrations of compounds for about 72 hours in medium supplemented with 5% FBS or 10% normal human serum (NHS). One lyophilized substrate solution vial was then reconstituted by adding 5 mL of substrate buffer solution, and was agitated gently until the solution was homogeneous. About 50 μL of mammalian cell lysis solution was added to 100 μL of cell suspension per well of a microplate, and the plate was shaken for about five minutes in an orbital shaker at 700 rpm. This procedure was used to lyse the cells and to stabilize the ATP. Next, 50 μL substrate solution was added to the wells and microplate was shaken for five minutes in an orbital shaker at 700 rpm. Finally, the luminescence was measured by a PerkinElmer TopCount® Microplate Scintillation Counter. Such assays, carried out with a range of doses of test compounds, allowed the determination of the cellular anti-antiproliferative IC50 of the compounds of the present invention.

BCL-2 = BCL-2 (Homo sapiens (Human), UniProt P10415); assay: BCL-2 competition binding (fluorescence polarization) assay; settings: read-out: BCL2 IC50
Description: Biological Example 1: BCL-2 Competition Binding (Fluorescence Polarization) Assay
The fluorescence-labeled 23 amino acid peptide BH3 was purchased from CalBiochem ([…]). […] This binding assay was performed in 96-well plate and with each assay contained 15 and 30 nM of labeled peptide and purified BCL-2 protein (purchased from R&D Systems, Inc). The assay buffer contained 20 mM Hepes (pH 7.0), 50 mM KCl, 5 mM MgCl2, 20 mM Na2MoO4, 0.1 mg/ml Bovine Gamma Globulin and 0.01% NP40. Compounds were diluted in DMSO and added to the final assay with concentration range from 20 μM to 2 nM. The polarization degree (mP) value was determined by BioTek Synergy II with background subtraction after 3 hours of incubation at room temperature. IC50 was calculated using Prism software with sigmoidal dose-response curve fitting. ABT-737 was used as reference compound. Such assays, carried out with a range of doses of test compounds, allowed the determination of an approximate IC50 value.

[2] = fluorescein-labeled BH3 peptide 15 nM, purified BCL-2 protein 30 nM, 3 hours incubation at room temperature

BCL-2, sequence (P10415 whole entry): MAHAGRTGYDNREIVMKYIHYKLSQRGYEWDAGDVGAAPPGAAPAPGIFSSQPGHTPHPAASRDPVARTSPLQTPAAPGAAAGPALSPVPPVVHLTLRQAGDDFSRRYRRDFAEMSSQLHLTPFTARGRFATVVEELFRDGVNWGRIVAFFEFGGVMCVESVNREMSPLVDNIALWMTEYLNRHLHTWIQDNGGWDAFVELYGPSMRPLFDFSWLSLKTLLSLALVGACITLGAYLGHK

SMILES | IC50 (BCL-2; [2]) | IC50 (BCL-2) | IC50 [1]
CC1(C)CCC(CN2CCN(c3ccc(C(=O)NS(=O)(=O)c4ccc(NCCOCCOCCOCCNc5cccc6c5C(=O)N(C5CCC(=O)NC5=O)C6=O)c([N+](=O)[O-])c4)c(N4CCCOc5nc6[nH]ccc6cc54)c3)CC2)=C(c2ccc(Cl)cc2)C1 (stereo not drawn) [Example 53, 4-(4-[[2-(4-chlorophenyl)-4,4-dimethylcyclohex-1-en-1-yl]methyl]piperazin-1-yl)-N-[4-(12-[[2-(2,6-dioxopiperidin-3-yl)-1,3-dioxoisoindol-4-yl]amino]-4,7,10-trioxa-1-azadodecan-1-yl)-3-nitrobenzenesulfonyl]-2-[14-oxa-2,4,10-triazatricyclo[7.5.0.0^[3,7]]tetradeca-1(9),2,5,7-tetraen-10-yl]benzamide] | 1.2 nM | – | 79 nM
CC1(C)CCC(CN2CCN(c3ccc(C(=O)NS(=O)(=O)c4ccc(NCC5CCOCC5)c([N+](=O)[O-])c4)c(N4CCCCOc5nc6[nH]ccc6cc54)c3)CC2)=C(c2ccc(Cl)cc2)C1 [Example 69, 4-(4-[[2-(4-chlorophenyl)-4,4-dimethylcyclohex-1-en-1-yl]methyl]piperazin-1-yl)-N-(3-nitro-4-[[(oxan-4-yl)methyl]amino]benzenesulfonyl)-2-[15-oxa-2,4,10-triazatricyclo[7.6.0.0^[3,7]]pentadeca-1(9),2,5,7-tetraen-10-yl]benzamide] | – | 0.6 nM | 28.6 nM
CNc1ccc2c(n1)OCCCN2c1cc(N2CCN(CC3=C(c4ccc(Cl)cc4)CC(C)(C)CC3)CC2)ccc1C(=O)NS(=O)(=O)c1ccc(NC[C@H]2COCCO2)c([N+](=O)[O-])c1 [Example 42, 4-(4-[[2-(4-chlorophenyl)-4,4-dimethylcyclohex-1-en-1-yl]methyl]piperazin-1-yl)-N-(4-[[(2S)-1,4-dioxan-2-ylmethyl]amino]-3-nitrobenzenesulfonyl)-2-[7-(methylamino)-2H,3H,4H-pyrido[2,3-b][1,4]oxazepin-1-yl]benzamide hydrochloride] | 4.1 nM | – | > 1000 nM
CC1(C)CCC(CN2CCN(c3ccc(C(=O)NS(=O)(=O)c4ccc(NCC5CCOCC5)c([N+](=O)[O-])c4)c(N4CCCSc5nc6[nH]ccc6cc54)c3)CC2)=C(c2ccc(Cl)cc2)C1 [Example 27, 4-(4-((4′-chloro-5,5-dimethyl-3,4,5,6-tetrahydro-[1,1′-biphenyl]-2-yl)methyl)piperazin-1-yl)-2-(3,4-dihydro-2H-pyrrolo[3′,2′:5,6]pyrido[2,3-b][1,4]thiazepin-1(7H)-yl)-N-((3-nitro-4-(((tetrahydro-2H-pyran-4-yl)methyl)amino)phenyl)sulfonyl)benzamide] | 0.3 nM | – | 21 nM
CC1(C)CCC(CN2CCN(c3ccc(C(=O)NS(=O)(=O)c4ccc(NCCOCCOCCOCCOCCNc5cccc6c5C(=O)N(C5CCC(=O)NC5=O)C6=O)c([N+](=O)[O-])c4)c(N4CCCOc5nc6[nH]ccc6cc54)c3)CC2)=C(c2ccc(Cl)cc2)C1 (stereo not drawn) [Example 51, 4-(4-[[2-(4-chlorophenyl)-4,4-dimethylcyclohex-1-en-1-yl]methyl]piperazin-1-yl)-N-[4-(15-[[2-(2,6-dioxopiperidin-3-yl)-1,3-dioxoisoindol-4-yl]amino]-4,7,10,13-tetraoxa-1-azapentadecan-1-yl)-3-nitrobenzenesulfonyl]-2-[14-oxa-2,4,10-triazatricyclo[7.5.0.0^[3,7]]tetradeca-1(9),2,5,7-tetraen-10-yl]benzamide] | 0.9 nM | – | 62 nM
Cc1ncsc1-c1ccc(CNC(=O)[C@@H]2C[C@@H](O)CN2C(=O)[C@@H](NC(=O)CCOCCOCCN2CCN(CCNc3ccc(S(=O)(=O)NC(=O)c4ccc(N5CCN(CC6=C(c7ccc(Cl)cc7)CC(C)(C)CC6)CC5)cc4N4CCCOc5nc6[nH]ccc6cc54)cc3[N+](=O)[O-])CC2)C(C)(C)C)cc1 [Example 56] | 0.4 nM | – | 63.7 nM
CC1(C)CCC(CN2CCN(c3ccc(C(=O)NS(=O)(=O)c4ccc(NCC5CCOCC5)c([N+](=O)[O-])c4)c(N4CCOc5ccccc54)c3)CC2)=C(c2ccc(Cl)cc2)C1 [Example 33, 4-(4-[[2-(4-chlorophenyl)-4,4-dimethylcyclohex-1-en-1-yl]methyl]piperazin-1-yl)-2-(3,4-dihydro-2H-1,4-benzoxazin-4-yl)-N-(3-nitro-4-[[(oxan-4-yl)methyl]amino]benzenesulfonyl)benzamide] | 42.6 nM | – | –
CC1(C)CCC(CN2CCN(c3ccc(C(=O)NS(=O)(=O)c4ccc(NCC5CCOCC5)c([N+](=O)[O-])c4)c(N4CCC(c5ccccn5)Oc5nc6[nH]ccc6cc54)c3)CC2)=C(c2ccc(Cl)cc2)C1 (stereo not drawn) [Example 40, 4-(4-[[2-(4-chlorophenyl)-4,4-dimethylcyclohex-1-en-1-yl]methyl]piperazin-1-yl)-N-[3-nitro-4-[(oxan-4-ylmethyl)amino]benzenesulfonyl]-2-[13-(pyridin-2-yl)-14-oxa-2,4,10-triazatricyclo[7.5.0.0^[3,7]]tetradeca-1(9),2,5,7-tetraen-10-yl]benzamide hydrochloride] | – | – | 5.6 nM
CC1(C)CCC(CN2CCN(c3ccc(C(=O)NS(=O)(=O)c4ccc(NC[C@H]5COCCO5)c([N+](=O)[O-])c4)c(N4C(=O)COc5nc6[nH]ccc6cc54)c3)CC2)=C(c2ccc(Cl)cc2)C1 [Example 76, 4-(4-[[2-(4-chlorophenyl)-4,4-dimethylcyclohex-1-en-1-yl]methyl]piperazin-1-yl)-N-(4-[[(2S)-1,4-dioxan-2-ylmethyl]amino]-3-nitrobenzenesulfonyl)-2-[11-oxo-13-oxa-2,4,10-triazatricyclo[7.4.0.0[3,7]]trideca-1(9),2,5,7-tetraen-10-yl]benzamide] | – | – | 54 nM
CC1(C)CCC(CN2CCN(c3ccc(C(=O)NS(=O)(=O)c4ccc(NCC5CCOCC5)c([N+](=O)[O-])c4)c(N4CC(F)(F)COc5nc6[nH]ccc6cc54)c3)CC2)=C(c2ccc(Cl)cc2)C1 [Example 36, 4-(4-[[2-(4-chlorophenyl)-4,4-dimethylcyclohex-1-en-1-yl]methyl]piperazin-1-yl)-2-[12,12-difluoro-14-oxa-2,4,10-triazatricyclo[7.5.0.0^[3,7]]tetradeca-1(9),2,5,7-tetraen-10-yl]-N-(3-nitro-4-[[(oxan-4-yl)methyl]amino]benzenesulfonyl)benzamide] | – | – | 0.95 nM

Now from value to compound, other results behind:

IC50 (BCL-2; [2]) | IC50 (BCL-2) | SMILES | IC50 [1]
0.08 nM | – | COC1(C)CCC(c2ccc(Cl)cc2)=C(CN2CCN(c3ccc(C(=O)NS(=O)(=O)c4ccc(NC[C@H]5COCCO5)c([N+](=O)[O-])c4)c(N4CCCOc5nc6[nH]ccc6cc54)c3)CC2)C1 (stereo partly drawn) [Example 77, 4-(4-[[2-(4-chlorophenyl)-5-methoxy-5-methylcyclohex-1-en-1-yl]methyl]piperazin-1-yl)-N-(4-[[(2S)-1,4-dioxan-2-ylmethyl]amino]-3-nitrobenzenesulfonyl)-2-[14-oxa-2,4,10-triazatricyclo[7.5.0.0[3,7]]tetradeca-1(9),2,5,7-tetraen-10-yl]benzamide] | 0.8 nM
122 nM | – | CC1(C)CCC(CN2CCN(c3ccc(C(=O)NS(=O)(=O)c4ccc(NCC5CCOCC5)c([N+](=O)[O-])c4)c(N4CCOc5ccncc54)c3)CC2)=C(c2ccc(Cl)cc2)C1 [Example 34, 4-(4-[[2-(4-chlorophenyl)-4,4-dimethylcyclohex-1-en-1-yl]methyl]piperazin-1-yl)-N-[3-nitro-4-[(oxan-4-ylmethyl)amino]benzenesulfonyl]-2-[2H,3H-pyrido[4,3-b][1,4]oxazin-4-yl]benzamide] | –
27 nM | – | CC1(C)CCC(CN2CCN(c3ccc(C(=O)NS(=O)(=O)c4ccc(NCC5CCOCC5)c([N+](=O)[O-])c4)c(N4CCCOc5ncccc54)c3)CC2)=C(c2ccc(Cl)cc2)C1 [Example 35, 4-(4-[[2-(4-chlorophenyl)-4,4-dimethylcyclohex-1-en-1-yl]methyl]piperazin-1-yl)-N-[3-nitro-4-[(oxan-4-ylmethyl)amino]benzenesulfonyl]-2-[2H,3H,4H-pyrido[2,3-b][1,4]oxazepin-1-yl]benzamide] | –
– | 47 nM | CC1(C)CCC(CN2CCN(c3ccc(C(=O)NS(=O)(=O)c4ccc(NC[C@H]5COCCO5)c([N+](=O)[O-])c4)c(N4CCCOc5nc6[nH]ccc6cc54)c3)CC2)=C(c2ccc(O)cc2)C1 [Example 38, N-(4-[[(2S)-1,4-dioxan-2-ylmethyl]amino]-3-nitrobenzenesulfonyl)-4-(4-[[2-(4-hydroxyphenyl)-4,4-dimethylcyclohex-1-en-1-yl]methyl]piperazin-1-yl)-2-[14-oxa-2,4,10-triazatricyclo[7.5.0.0^[3,7]]tetradeca-1(9),2,5,7-tetraen-10-yl]benzamide] | –
